For the experiment, the target named is T1, human macrophage elastase (HME/hMMP-12) (Homo sapiens, UniProt P39900).
T1 construct: purchased R&D Systems 917-MP
T1 sequence (P39900 106-470): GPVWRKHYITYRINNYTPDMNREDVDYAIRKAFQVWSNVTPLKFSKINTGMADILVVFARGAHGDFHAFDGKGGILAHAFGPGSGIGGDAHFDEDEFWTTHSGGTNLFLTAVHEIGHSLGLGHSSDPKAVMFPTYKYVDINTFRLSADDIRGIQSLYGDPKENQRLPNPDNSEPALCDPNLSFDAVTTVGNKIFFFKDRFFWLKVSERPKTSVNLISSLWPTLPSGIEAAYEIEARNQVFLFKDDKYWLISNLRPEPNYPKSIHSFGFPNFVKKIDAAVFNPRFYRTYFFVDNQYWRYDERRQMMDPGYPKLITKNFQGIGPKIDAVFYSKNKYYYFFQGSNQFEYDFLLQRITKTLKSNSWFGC
The experiment can be described thus: In vitro HME inhibition test (standard or high-sensitivity). The experiment is classed as biochemical. The note with it: in some cases mean values, rounded to two significant figures. On the procedure:
The potency of the compounds according to the invention with respect to HME (MMP-12) is determined in an in vitro inhibition test. The HME-mediated amidolytic cleavage of a suitable peptide substrate leads to an increase in fluorescent light therein. The signal intensity of the fluorescent light is directly proportional to the enzyme activity. The active concentration of a test compound at which half the enzyme is inhibited (50% signal intensity of the fluorescent light) is reported as the IC50 value.
In a 384 hole microtiter plate, in a total test volume of 41 μl, the test buffer (0.1 M HEPES pH 7.4, 0.15 M NaCl, 0.03 M CaCl2, 0.004 mM ZnCl2, 0.02 M EDTA, 0.005% Brij®), the enzyme (0.5 nM HME; R&D Systems, 917-MP, autocatalytic activation according to the manufacturer's instructions) and the intramolecularly quenched substrate [5 μM Mca-Pro-Leu-Gly-Leu-Glu-Glu-Ala-Dap(Dnp)-NH2; Bachem, M-2670] are incubated in the absence and presence of the test substance (as a solution in DMSO) at 37° C. for two hours. The fluorescence intensity of the test mixtures is measured (excitation […], emission 393 nm). The IC50 values are ascertained by plotting the fluorescent light intensity against the active ingredient concentration.
In this case, an enzyme concentration ten times lower is used (final concentration, e.g. 0.05 nM) in order to achieve an increased test sensitivity. The incubation period chosen for the test is correspondingly longer (e.g. 16 hours).
In turn, `CC(C)CCCOc1ccc2cc(C(=O)CC(CCn3nnc4ccccc4c3=O)C(=O)O)oc2c1` (racemic) [Example 70, (+/−)-4-{6-[(4-Methylpentyl)oxy]-1-benzofur-2-yl}-4-oxo-2-[2-(4-oxo-1,2,3-benzotriazin-3(4H)-yl)ethyl]butanoic acid] gave an IC50 of 4.1 nM.

The compound `O=C(CC(CCn1nnc2ccccc2c1=O)C(=O)O)c1noc2cc(OCc3ccc(Cl)cc3)ccc12` (racemic) [Example 147, (+/−)-4-{6-[(4-Chlorobenzyl)oxy]-1,2-benzoxazol-3-yl}-4-oxo-2-[2-(4-oxo-1,2,3-benzotriazin-3(4H)-yl)ethyl]butanoic acid] displayed an IC50 of 1.7 nM.

In turn, `O=C(CC(CCn1nnc2ccccc2c1=O)C(=O)O)c1cc2ccc(OCC3CCC3)cc2s1` (racemic) [Example 121, (+/−)-4-[6-(Cyclobutylmethoxy)-1-benzothiophen-2-yl]-4-oxo-2-[2-(4-oxo-1,2,3-benzotriazin-3(4H)-yl)ethyl]butanoic acid] registered an IC50 of 3.1 nM.

In turn, `O=C(CC(CCn1nnc2ccccc2c1=O)C(=O)O)c1cc2ccc(OCC(=O)C3CC3)cc2s1` (racemic) [Example 115, (+/−)-4-[6-(2-Cyclopropyl-2-oxoethoxy)-1-benzothiophen-2-yl]-4-oxo-2-[2-(4-oxo-1,2,3-benzotriazin-3(4H)-yl)ethyl]butanoic acid] gave an IC50 of 3.1 nM.

In the case of `O=C(CC(CCn1nnc2ccccc2c1=O)C(=O)O)c1coc2cc(OCc3ccccc3)ccc12` (single isomer, unassigned; (+)) [Example 85, (+)-4-[6-(Benzyloxy)-1-benzofur-3-yl]-4-oxo-2-[2-(4-oxo-1,2,3-benzotriazin-3(4H)-yl)ethyl]butanoic acid], the IC50 was 0.38 nM.

In turn, `CCCOc1ccc2cc(C(=O)CC(CCn3nnc4ccccc4c3=O)C(=O)O)oc2c1` (single isomer, unassigned) [Example 59, 4-Oxo-2-[2-(4-oxo-1,2,3-benzotriazin-3(4H)-yl)ethyl]-4-(6-propoxy-1-benzofur-2-yl)butanoic acid] came in with an IC50 of 980 nM.

As for `O=C(CC(CCn1nnc2ccccc2c1=O)C(=O)O)c1coc2cc(OCC3CCCC3)ccc12` (racemic) [Example 78, (+/−)-4-[6-(Cyclopentylmethoxy)-1-benzofur-3-yl]-4-oxo-2-[2-(4-oxo-1,2,3-benzotriazin-3(4H)-yl)ethyl]butanoic acid], half-maximal inhibition (IC50) was put at 2 nM.

As for `CCCOc1ccc2cc(C(=O)CC(CCn3nnc4ccc(C(F)(F)F)cc4c3=O)C(=O)O)sc2c1` (racemic) [Example 132, (+/−)-4-Oxo-2-{2-[4-oxo-6-(trifluoromethyl)-1,2,3-benzotriazin-3(4H)-yl]ethyl}-4-(6-propoxy-1-benzothiophen-2-yl)butanoic acid], the IC50 was 0.51 nM.

On to `CCOc1ccc2cc(C(=O)CC(CCn3nnc4ccccc4c3=O)C(=O)O)sc2c1` (racemic) [Example 127, (+/−)-4-(6-Ethoxy-1-benzothiophen-2-yl)-4-oxo-2-[2-(4-oxo-1,2,3-benzotriazin-3(4H)-yl)ethyl]butanoic acid], for which inhibition was half-maximal at 2.8 nM (IC50).

For `O=C(CC(CCn1nnc2ccccc2c1=O)C(=O)O)c1coc2cc(OCC3CCOCC3)ccc12` (racemic) [Example 95, (+/−)-4-Oxo-2-[2-(4-oxo-1,2,3-benzotriazin-3(4H)-yl)ethyl]-4-[6-(tetrahydro-2H-pyran-4-ylmethoxy)-1-benzofur-3-yl]butanoic acid], inhibition was half-maximal at 0.6 nM (IC50).

As for `O=C(CC(CCn1nnc2ccccc2c1=O)C(=O)O)c1cc2cc(OCC3CCCCC3)ccc2o1` (single isomer, unassigned; enantiomer 1) [Example 9, (−)-4-[5-(Cyclohexylmethoxy)-1-benzofur-2-yl]-4-oxo-2-[2-(4-oxo-1,2,3-benzotriazin-3(4H)-yl)ethyl]butanoic acid (enantiomer 1)], the IC50 came out at 370 nM.

`CCCCCCOc1ccc2c(C(=O)CC(CCn3nnc4ccccc4c3=O)C(=O)O)coc2c1` (racemic) [Example 98, (+/−)-4-[6-(Hexyloxy)-1-benzofur-3-yl]-4-oxo-2-[2-(4-oxo-1,2,3-benzotriazin-3(4H)-yl)ethyl]butanoic acid] came in with an IC50 of 0.4 nM.

With `O=C(CC(CCn1nnc2ccccc2c1=O)C(=O)O)c1coc2cc(OCc3cccc(Cl)c3)ccc12` (racemic) [Example 77, (+/−)-4-{6-[(3-Chlorobenzyl)oxy]-1-benzofur-3-yl}-4-oxo-2-[2-(4-oxo-1,2,3-benzotriazin-3(4H)-yl)ethyl]butanoic acid], half-maximal inhibition (IC50) required 2.9 nM.

In turn, `CC(C)CCOc1ccc2cc(C(=O)CC(CCn3nnc4ccccc4c3=O)C(=O)O)sc2c1` (racemic) [Example 122, (+/−)-4-[6-(3-Methylbutoxy)-1-benzothiophen-2-yl]-4-oxo-2-[2-(4-oxo-1,2,3-benzotriazin-3(4H)-yl)ethyl]butanoic acid] displayed an IC50 of 4.5 nM.

For `CCCOc1ccc2c(C(=O)CC(CCn3nnc4ccccc4c3=O)C(=O)O)coc2c1` (racemic) [Example 86, (+/−)-4-Oxo-2-[2-(4-oxo-1,2,3-benzotriazin-3(4H)-yl)ethyl]-4-(6-propoxy-1-benzofur-3-yl)butanoic acid], the concentration for half-maximal inhibition (IC50) is 1.4 nM.

`CCCCCCOc1ccc2c(C(=O)CC(CCn3nnc4ccccc4c3=O)C(=O)O)coc2c1` (single isomer, unassigned; (-)) [Example 99, (−)-4-[6-(Hexyloxy)-1-benzofur-3-yl]-4-oxo-2-[2-(4-oxo-1,2,3-benzotriazin-3(4H)-yl)ethyl]butanoic acid] displayed an IC50 of 100 nM.

Regarding `O=C(CC(CCn1nnc2ccccc2c1=O)C(=O)O)c1coc2cc(OCCC3CCCCC3)ccc12` (racemic) [Example 76, (+/−)-4-[6-(2-Cyclohexylethoxy)-1-benzofur-3-yl]-4-oxo-2-[2-(4-oxo-1,2,3-benzotriazin-3(4H)-yl)ethyl]butanoic acid], it took 0.66 nM to reach half-maximal inhibition (IC50).

In turn, `CCCOc1ccc2c(C(=O)CC(CCn3nnc4ccccc4c3=O)C(=O)O)coc2c1` (single isomer, unassigned; (+)) [Example 88, (+)-4-Oxo-2-[2-(4-oxo-1,2,3-benzotriazin-3(4H)-yl)ethyl]-4-(6-propoxy-1-benzofur-3-yl)butanoic acid] showed an IC50 of 1.1 nM.

`O=C(CC(CCn1nnc2ccccc2c1=O)C(=O)O)c1coc2cc(OCc3ccc(Cl)c(Cl)c3)ccc12` (single isomer, unassigned) [Example 93, 4-{6-[(3,4-Dichlorobenzyl)oxy]-1-benzofur-3-yl}-4-oxo-2-[2-(4-oxo-1,2,3-benzotriazin-3(4H)-yl)ethyl]butanoic acid] yielded an IC50 of 97 nM.

In turn, `CC(C)COc1ccc2c(C(=O)CC(CCn3nnc4ccccc4c3=O)C(=O)O)coc2c1` (racemic) [Example 104, (+/−)-4-(6-Isobutoxy-1-benzofur-3-yl)-4-oxo-2-[2-(4-oxo-1,2,3-benzotriazin-3(4H)-yl)ethyl]butanoic acid] registered an IC50 of 1.1 nM.

Consider `O=C(CC(CCn1nnc2ccccc2c1=O)C(=O)O)c1coc2cc(OCc3ccc(Cl)c(Cl)c3)ccc12` (racemic) [Example 92, (+/−)-4-{6-[(3,4-Dichlorobenzyl)oxy]-1-benzofur-3-yl}-4-oxo-2-[2-(4-oxo-1,2,3-benzotriazin-3(4H)-yl)ethyl]butanoic acid], for which half-maximal inhibition (IC50) was put at 1.3 nM.

On to `Cc1ccccc1CCOc1ccc2oc(C(=O)CC(CCn3nnc4ccccc4c3=O)C(=O)O)cc2c1` (racemic) [Example 4, (+/−)-4-{5-[2-(2-Methylphenyl)ethoxy]-1-benzofur-2-yl}-4-oxo-2-[2-(4-oxo-1,2,3-benzotriazin-3(4H)-yl)ethyl]butanoic acid], for which the 50% inhibitory concentration (IC50) is 4.3 nM.

In turn, `Cc1c(COc2ccc3oc(C(=O)CC(CCn4nnc5ccccc5c4=O)C(=O)O)cc3c2)cccc1C(F)(F)F` (racemic) [Example 48, (+/−)-4-(5-{[2-Methyl-3-(trifluoromethyl)benzyl]oxy}-1-benzofur-2-yl)-4-oxo-2-[2-(4-oxo-1,2,3-benzotriazin-3(4H)-yl)ethyl]butanoic acid] displayed an IC50 of 4 nM.

On to `O=C(CC(CCn1nnc2ccccc2c1=O)C(=O)O)c1cc2ccc(OCCCC(F)(F)F)cc2s1` (racemic) [Example 120, (+/−)-4-Oxo-2-[2-(4-oxo-1,2,3-benzotriazin-3(4H)-yl)ethyl]-4-[6-(4,4,4-trifluorobutoxy)-1-benzothiophen-2-yl]butanoic acid], for which the midpoint of inhibition, the IC50, lay at 3.6 nM.

In turn, `O=C(CC(CCn1nnc2ccccc2c1=O)C(=O)O)c1noc2cc(OCc3ccc(F)cc3)ccc12` (single isomer, unassigned; enantiomer 1) [Example 137, 4-{6-[(4-Fluorobenzyl)oxy]-1,2-benzoxazol-3-yl}-4-oxo-2-[2-(4-oxo-1,2,3-benzotriazin-3(4H)-yl)ethyl]butanoic acid (enantiomer 1)] came in with an IC50 of 35 nM.

Consider `N#CCCCOc1ccc2oc(C(=O)CC(CCn3nnc4ccccc4c3=O)C(=O)O)cc2c1` (racemic) [Example 15, (+/−)-4-[5-(3-Cyanopropoxy)-1-benzofur-2-yl]-4-oxo-2-[2-(4-oxo-1,2,3-benzotriazin-3(4H)-yl)ethyl]butanoic acid], for which the IC50 was determined as 4.8 nM.

What is called IC50 is the concentration at which inhibition is half-maximal. Low readings indicate inhibition by little substance, high ones a need for much substance.
